The experiment deals with maximal electroshock (MES) induced seizures. Kind of experiment: Maximal electroshock (MES) test. It is filed as in vivo, mice. To be noted: Mus musculus, ip, 100 mg/kg i.p., mice. An excerpt: Male Kunming mice (23–28 g) were maintained under controlled conditions with ad libitum access to standard pellet diet and water. Test compounds were formulated immediately prior to administration in normal saline containing 0.5% Tween-80. Our experiment was authorized by the Institutional Animal Care and Use Committee of Shaanxi University of Chinese Medicine (animal ethics certificate number: SUCMDL20210309027).
The MES test carried out following the method of Swinyard. A 60 Hz current (50 mA; 0.25 s duration) was delivered via corneal electrodes using a YSD-4G electro convulsion meter (Zhenghua Instruments, Huaibei, China, SN: ZH0056232). […] Test compounds were suspended in an identical vehicle. Protection was defined as abolition of tonic hindlimb extension.
(In general: Protection in the maximal electroshock model is a classic sign of anticonvulsant action.)

The mark [1] stands for this setting: 0.5 h, read-out: MES model, protected mice/total mice, 0.5 h (converted).
The mark [2] stands for this setting: 1 h, read-out: MES model, protected mice/total mice, 1 h (converted).
[3] abbreviates: 2 h, read-out: MES model, protected mice/total mice, 2 h (converted).
Where [4] appears, read: 3 h, read-out: MES model, protected mice/total mice, 3 h (converted).

Like-named read-outs stand apart in the source and are kept apart here.

As for `COc1cc(/C=C/C(=O)N2CCN(CCCC(=O)O[C@H]3C[C@H]4CC[C@]3(C)C4(C)C)CC2)cc(OC)c1OC` (relative stereo) [A7, rel-(1R,2S,4R)-1,7,7-trimethylbicyclo [2.2.1]heptan-2-yl 4-(4-((E)-3-(3,4,5-trimethoxyphenyl)acryloyl)piperazin-1-yl)butanoate], the responders at 100 mg/kg is 75% under setting [1], 50% under setting [2], 25% under setting [3] and 0% under setting [4].

As for `COc1cc(/C=C/C(=O)N2CCN(CCCC(=O)O)CC2)cc(OC)c1OC` [A1], the responders at 100 mg/kg is, setting by setting: under setting [1], 25%; under setting [2], 25%; under setting [3], 0%; under setting [4], 0%.

Consider `C=CCc1ccc(OC(=O)CCCN2CCN(C(=O)/C=C/c3cc(OC)c(OC)c(OC)c3)CC2)c(OC)c1` [A2, 4-allyl-2-methoxyphenyl (E)-4-(4-(3-(3,4,5-trimethoxyphenyl)acryloyl)piperazin-1-yl)butanoate], for which the responders at 100 mg/kg by setting is: under setting [1], 50%; under setting [2], 50%; under setting [3], 25%; under setting [4], 0%.

For the compound `C=CCc1ccccc1OC(=O)CCCN1CCN(C(=O)/C=C/c2cc(OC)c(OC)c(OC)c2)CC1` [A4, 2-allylphenyl (E)-4-(4-(3-(3,4,5-trimethoxyphenyl)acryloyl)piperazin-1-yl)butanoate], the responders at 100 mg/kg was 50% under setting [1], 50% under setting [2], 25% under setting [3] and 0% under setting [4].

As to `COc1cc(OC)c(OC)cc1/C=C/COC(=O)CCCN1CCN(C(=O)/C=C/c2cc(OC)c(OC)c(OC)c2)CC1` [A5, (E)-3-(2,4,5-trimethoxyphenyl)allyl 4-(4-((E)-3-(3,4,5-trimethoxyphenyl)acryloyl)piperazin-1-yl)butanoate], the responders at 100 mg/kg runs as follows: under setting [1], 75%; under setting [2], 75%; under setting [3], 50%; under setting [4], 0%.

Regarding `COc1cc(/C=C/C(=O)N2CCN(CCCC(=O)OCC=Cc3ccccc3)CC2)cc(OC)c1OC` [A6, cinnamyl 4-(4-((E)-3-(3,4,5-trimethoxyphenyl)acryloyl)piperazin-1-yl)butanoate], the responders at 100 mg/kg reads like this: under setting [1], 50%; under setting [2], 50%; under setting [3], 25%; under setting [4], 0%.

Regarding `COc1cc(/C=C/C(=O)N2CCN(CCCC(=O)N3CCN(C(c4ccccc4)c4ccccc4)CC3)CC2)cc(OC)c1OC` [A8, (E)-1-(4-benzhydrylpiperazin-1-yl)-4-(4-(3-(3,4,5-trimethoxyphenyl)acryloyl)piperazin-1-yl)butan-1-one], the responders at 100 mg/kg is, setting by setting: under setting [1], 75%; under setting [2], 50%; under setting [3], 25%; under setting [4], 0%.

As for `COc1cc(/C=C/C(=O)N2CCN(CCCC(=O)N3CCN(c4nsc5ccccc45)CC3)CC2)cc(OC)c1OC` [A10, (E)-1-(4-(benzo[d]isothiazol-3-yl)piperazin-1-yl)-4-(4-(3-(3,4,5-trimethoxyphenyl)acryloyl)piperazin-1-yl)butan-1-one], the responders at 100 mg/kg under setting [1] is 75%, the responders at 100 mg/kg under setting [2] is 25%, the responders at 100 mg/kg under setting [3] is 25% and the responders at 100 mg/kg under setting [4] was 0%.

For the compound `COc1cc(/C=C/C(=O)N2CCN(CCCC(=O)N3CCN(c4ccccc4)CC3)CC2)cc(OC)c1OC` [A11, (E)-1-(4-phenylpiperazin-1-yl)-4-(4-(3-(3,4,5-trimethoxyphenyl)acryloyl)piperazin-1-yl)butan-1-one], the responders at 100 mg/kg is 25% under setting [1], 25% under setting [2], 25% under setting [3] and 0% under setting [4].

Regarding `COc1cc(/C=C/C(=O)N2CCN(CCCC(=O)N3CCN(c4cccc(Cl)c4)CC3)CC2)cc(OC)c1OC` [A13, (E)-1-(4-(3-chlorophenyl)piperazin-1-yl)-4-(4-(3-(3,4,5-trimethoxyphenyl)acryloyl)piperazin-1-yl)butan-1-one], the responders at 100 mg/kg under setting [1] is 25%, the responders at 100 mg/kg under setting [2] was 25%, the responders at 100 mg/kg under setting [3] was 0% and the responders at 100 mg/kg under setting [4] was 0%.

In the case of `COc1ccccc1N1CCN(C(=O)CCCN2CCN(C(=O)/C=C/c3cc(OC)c(OC)c(OC)c3)CC2)CC1` [A15, (E)-1-(4-(2-methoxyphenyl)piperazin-1-yl)-4-(4-(3-(3,4,5-trimethoxyphenyl)acryloyl)piperazin-1-yl)butan-1-one], the responders at 100 mg/kg was 75% under setting [1], 75% under setting [2], 25% under setting [3] and 0% under setting [4].

For `COc1cc(/C=C/C(=O)N2CCN(CCCC(=O)N3CCN(c4ncccn4)CC3)CC2)cc(OC)c1OC` [A16, (E)-1-(4-(pyrimidin-2-yl)piperazin-1-yl)-4-(4-(3-(3,4,5-trimethoxyphenyl)acryloyl)piperazin-1-yl)butan-1-one], the responders at 100 mg/kg is, setting by setting: under setting [1], 75%; under setting [2], 75%; under setting [3], 50%; under setting [4], 0%.

`COc1cc(/C=C/C(=O)N2CCN(CCCC(=O)N3CCC(c4noc5cc(F)ccc45)CC3)CC2)cc(OC)c1OC` [A17, (E)-1-(4-(6-fluorobenzo[d]isoxazol-3-yl)piperidin-1-yl)-4-(4-(3-(3,4,5-trimethoxyphenyl)acryloyl)piperazin-1-yl)butan-1-one]: the responders at 100 mg/kg runs as follows: under setting [1], 50%; under setting [2], 50%; under setting [3], 25%; under setting [4], 0%.

On to `COc1cc(/C=C/C(=O)N2CCN(C(=O)CCC(=O)O)CC2)cc(OC)c1OC` [B1], for which the responders at 100 mg/kg is 25% under setting [1], 25% under setting [2], 0% under setting [3] and 0% under setting [4].

On to `C=CCc1ccc(OC(=O)CCC(=O)N2CCN(C(=O)/C=C/c3cc(OC)c(OC)c(OC)c3)CC2)c(OC)c1` [B2, 4-allyl-2-methoxyphenyl (E)-4-oxo-4-(4-(3-(3,4,5-trimethoxyphenyl)acryloyl)piperazin-1-yl)butanoate], for which the responders at 100 mg/kg under setting [1] is 75%, the responders at 100 mg/kg under setting [2] was 75%, the responders at 100 mg/kg under setting [3] was 25% and the responders at 100 mg/kg under setting [4] was 0%.

Take `C/C=C/c1ccc(OC(=O)CCC(=O)N2CCN(C(=O)/C=C/c3cc(OC)c(OC)c(OC)c3)CC2)c(OC)c1` [B3, 2-methoxy-4-((E)-prop-1-en-1-yl)phenyl 4-oxo-4-(4-((E)-3-(3,4,5-trimethoxyphenyl)acryloyl)piperazin-1-yl)butanoate]: the responders at 100 mg/kg under setting [1] is 75%, the responders at 100 mg/kg under setting [2] was 75%, the responders at 100 mg/kg under setting [3] was 25% and the responders at 100 mg/kg under setting [4] was 0%.

Take `C=CCc1ccccc1OC(=O)CCC(=O)N1CCN(C(=O)/C=C/c2cc(OC)c(OC)c(OC)c2)CC1` [B4, 2-allylphenyl (E)-4-oxo-4-(4-(3-(3,4,5-trimethoxyphenyl)acryloyl)piperazin-1-yl)butanoate]: the responders at 100 mg/kg reads like this: under setting [1], 75%; under setting [2], 50%; under setting [3], 50%; under setting [4], 0%.

Take `COc1cc(/C=C/C(=O)N2CCN(C(=O)CCC(=O)O[C@H]3C[C@H]4CC[C@]3(C)C4(C)C)CC2)cc(OC)c1OC` [B7, (1R,2S,4R)-1,7,7-trimethylbicyclo [2.2.1]heptan-2-yl 4-oxo-4-(4-((E)-3-(3,4,5-trimethoxyphenyl)acryloyl)piperazin-1-yl)butanoate]: the responders at 100 mg/kg was 75% under setting [1], 50% under setting [2], 25% under setting [3] and 0% under setting [4].

For the compound `COc1cc(/C=C/C(=O)N2CCN(C(=O)CCC(=O)N3CCN(C(c4ccccc4)c4ccccc4)CC3)CC2)cc(OC)c1OC` [B8, (E)-1-(4-benzhydrylpiperazin-1-yl)-4-(4-(3-(3,4,5-trimethoxyphenyl)acryloyl)piperazin-1-yl)butane-1,4-dione], the responders at 100 mg/kg by setting is: under setting [1], 75%; under setting [2], 75%; under setting [3], 25%; under setting [4], 0%.

As to `COc1cc(/C=C/C(=O)N2CCN(C(=O)CCC(=O)N3CCN(c4nsc5ccccc45)CC3)CC2)cc(OC)c1OC` [B10, (E)-1-(4-(benzo[d]isothiazol-3-yl)piperazin-1-yl)-4-(4-(3-(3,4,5-trimethoxyphenyl)acryloyl)piperazin-1-yl)butane-1,4-dione], the responders at 100 mg/kg is, setting by setting: under setting [1], 75%; under setting [2], 75%; under setting [3], 25%; under setting [4], 0%.

Regarding `COc1cc(/C=C/C(=O)N2CCN(C(=O)CCC(=O)N3CCN(c4ccccc4)CC3)CC2)cc(OC)c1OC` [B11, (E)-1-(4-phenylpiperazin-1-yl)-4-(4-(3-(3,4,5-trimethoxyphenyl)acryloyl)piperazin-1-yl)butane-1,4-dione], the responders at 100 mg/kg is 50% under setting [1], 50% under setting [2], 25% under setting [3] and 0% under setting [4].

Values taken from article PMC12472621, “Excavating Precursors from Herb Pairs Polygala tenuifolia and Acori tatarinowii: Synthesis and Anticonvulsant Activity Evaluation of 3,4,5-Trimethoxycinnamic Acid (TMCA) Piperazine Amide Derivatives” (Pharmaceuticals, 2025).
